Experimental data from BindingDB's records for doi:10.1016/j.bioorg.2006.01.004 (University of Zagreb, 2006).
Values joined by “and” are separate entries in the source; they are usually repeats but may differ in a detail not shown here. Identical values can stand only once.

Biological target: Carboxylic ester hydrolase (Equus caballus, UniProt Q9N1N9)
Assay: Inhibition Assay
Conditions: 40 °C
Procedure: Butyrylcholinesterase type IV-S, lyophilized from horse serum (sigma Chemical Co.) was used without further purification. HPLC analyses (Thermo Separation Products, Spectra SYSTEM 2000) were performed on an RP-18 column at 40 C.

Carboxylic ester hydrolase, sequence (Q9N1N9 whole entry): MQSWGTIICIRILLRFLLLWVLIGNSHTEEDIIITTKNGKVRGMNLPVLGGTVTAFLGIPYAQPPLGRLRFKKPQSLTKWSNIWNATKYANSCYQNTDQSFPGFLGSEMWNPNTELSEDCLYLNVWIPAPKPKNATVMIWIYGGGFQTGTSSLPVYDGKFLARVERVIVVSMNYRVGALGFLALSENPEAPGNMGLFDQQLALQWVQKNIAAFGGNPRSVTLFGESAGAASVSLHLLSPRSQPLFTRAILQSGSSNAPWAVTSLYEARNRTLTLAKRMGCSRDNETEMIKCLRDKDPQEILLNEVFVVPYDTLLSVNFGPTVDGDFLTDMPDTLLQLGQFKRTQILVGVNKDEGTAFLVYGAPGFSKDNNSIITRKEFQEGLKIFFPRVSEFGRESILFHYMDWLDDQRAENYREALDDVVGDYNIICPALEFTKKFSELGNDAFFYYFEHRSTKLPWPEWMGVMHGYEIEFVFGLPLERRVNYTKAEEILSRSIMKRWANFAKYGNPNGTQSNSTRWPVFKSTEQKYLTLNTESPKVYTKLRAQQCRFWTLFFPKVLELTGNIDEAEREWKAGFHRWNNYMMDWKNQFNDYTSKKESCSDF

Structure (SMILES) | Ki
O=C(NC1C[N+]2(Cc3ccccc3)CCC1CC2)c1ccccc1 [(S)-N-Benzyl-3-benzamidoquinuclidinium bromide, 12] | 25.9 µM and 3.7 µM
CCCC(=O)NC1C[N+]2(Cc3ccccc3)CCC1CC2 [(S)-N-Benzyl-3-butanamidoquinuclidinium bromide, 9] | 160 µM and 242 µM
